Assay results from patent USRE43327E1, “Hydrophobic polyamine analogs and methods for their use” (Aminex Therapeutics, Inc., priority 2001, dated 2012).
Where “and” joins values, the source holds several entries; their conditions need not be identical. Equal entries are not always repeated.

Legend:
Type in all cases: cell-based
A375 [1] = test: Growth inhibition assay (MTS/PMS) with DFMO, A375; conditions: in the presence of DFMO (1-5 mM), 1 mM AG, 0.5 μM SPD, six days; repeat determinations; read-out: Cell Line EC50 A375
Description: (§1) Medias were obtained from Mediatech, Inc. (Herdon, Va.) and serums from Gibco BRL (Gaithersburg, Md.). 50 U/ml penicillin, 50 μg/ml streptomycin and 2 mM L-glutamine (all from Bio Whittaker, Walkersville, Md.) were included in all cultures. […] When cells were cultured with polyamines or ORI compounds, 1 mM aminoguanidine (AG; Sigma) was included to inhibit serum amine oxidase activity.

MDA-MB-231 [2] = test: Growth inhibition assay (MTS/PMS) with DFMO, MDA-MB-231; conditions: in the presence of DFMO (1-5 mM), 1 mM AG, 0.5 μM SPD, six days; repeat determinations; read-out: Cell Line EC50 MDA-MB-231
Description: as §1

PC-3 [3] = test: Growth inhibition assay (MTS/PMS) with DFMO, PC-3; conditions: in the presence of DFMO (1-5 mM), 1 mM AG, 0.5 μM SPD, six days; repeat determinations; read-out: Cell Line EC50 PC-3
Description: as §1

SK-OV-3 [4] = test: Growth inhibition assay (MTS/PMS) with DFMO, SK-OV-3; conditions: in the presence of DFMO (1-5 mM), 1 mM AG, 0.5 μM SPD, six days; repeat determinations; read-out: Cell Line EC50 SK-OV-3
Description: as §1

[5] = system: 4 cell lines (A375, MDA-MB-231, PC-3, SK-OV-3); test: Growth inhibition with DFMO, average over 4 cell lines; conditions: for EC50: Table 3, average over cell lines, with DFMO, read-out: AVG. EC50; for growth inhibition / EC50 with polyamine synthesis inhibitor, comparison in words: compared with lysine-spermine conjugates (ORI 1202, ORI 1426) or PAs lacking a hydrophobic domain
Description: Cells were plated in 96-well plates such that they would be in log growth for the duration of the assay. The day after plating, PAs were added to the cells, and growth, if any, permitted to continue for six days in the presence of 1 mM AG and 0.5 μM SPD to insure that any growth inhibition was not the result of depletion of external polyamines in the media. At the end of the six days, cell growth was measured by MTS/PMS dye assay (Cell Titer 96 Aqueous Non-Radioactive Cell Proliferation Assay; Promega, Madison, Wis.).

A375 [6] = test: Growth inhibition assay, PA alone, A375; conditions: PA alone (no DFMO), six days; repeat determinations; read-out: Cell Line IC50 A375
Description: as §1

MDA-MB-231 [7] = test: Growth inhibition assay, PA alone, MDA-MB-231; conditions: PA alone (no DFMO), six days; repeat determinations; read-out: Cell Line IC50 MDA-MB-231
Description: as §1

PC-3 [8] = test: Growth inhibition assay, PA alone, PC-3; conditions: PA alone (no DFMO), six days; repeat determinations; read-out: Cell Line IC50 PC-3
Description: as §1

SK-OV-3 [9] = test: Growth inhibition assay, PA alone, SK-OV-3; conditions: PA alone (no DFMO), six days; repeat determinations; read-out: Cell Line IC50 SK-OV-3
Description: as §1

| Compound | EC50 (A375 [1]) | EC50 (MDA-MB-231 [2]) | EC50 (PC-3 [3]) | EC50 (SK-OV-3 [4]) | EC50 [5] [µM] | IC50 (A375 [6]) [µM] | IC50 (MDA-MB-231 [7]) [µM] | IC50 (PC-3 [8]) [µM] | IC50 (SK-OV-3 [9]) [µM] | growth inhibition / EC50 with polyamine synthesis inhibitor, comparison in words [5] |
| --- | --- | --- | --- | --- | --- | --- | --- | --- | --- | --- |
| CCCCCCCCCCCCCCCCC(=O)NCCCC[C@H](N)C(=O)NCCCNCCCCNCCCN [IA3] | < 0.01 µM and 0.01 µM | 0.032 µM and 0.018 µM | 0.022 µM | 0.097 µM and 0.167 µM | 0.053 | – | – | – | – | – |
| CCCCCCCCCCCCCC(=O)NCCCC[C@H](N)C(=O)NCCCNCCCCNCCCN [IA5] | 0.025 µM | 0.208 µM | 0.189 µM | 4.6 µM | 1.26 | > 30 | > 30 | 9.87 | 21.5 | – |
| CCCCCCCC(=O)NCCCC[C@H](N)C(=O)NCCCNCCCCNCCCN [IA7] | 2.3 µM and 1.75 µM | 1.12 µM | 1.35 µM and 0.853 µM | > 30 µM | 6.23 | > 30 | > 30 | > 30 | > 30 | – |
| CC(=O)NCCCC[C@H](N)C(=O)NCCCNCCCCNCCCN [IA11] | > 30 µM | > 30 µM | 2.3 µM | > 30 µM | – | > 30 | > 30 | > 30 | > 30 | higher EC50 |
| NCCCNCCCCNCCCNC(=O)[C@@H](N)CCCCNC(=O)CCCCCCCCC(=O)NCCCC[C@H](N)C(=O)NCCCNCCCCNCCCN [IA19] | 0.214 µM | > 30 µM | > 30 µM | > 30 µM | – | > 30 | > 30 | > 30 | > 30 | no improvement |
| NCCCNCCCCNCCCNC(=O)[C@@H](N)CCCCNC(=O)c1ccccc1 [IA24] | 1.56 µM | – | > 30 µM | – | – | > 30 | – | > 30 | – | – |
| NCCCNCCCCNCCCNC(=O)[C@@H](N)CCCCNC(=O)c1ccc(N)cc1 [IA28] | 1.66 µM | > 30 µM | 0.982 µM | > 30 µM | – | > 30 | > 30 | > 30 | > 30 | – |
| CC(C)CC(=O)NCCCC[C@@H](N)C(=O)NCCCNCCCCNCCCN [IB35] | > 100 µM | > 100 µM | > 100 µM | > 100 µM | > 100 | > 100 | > 100 | > 100 | > 100 | – |
| NCCCNCCCCNCCCNC(=O)[C@H](N)CCCCNC(=O)C(F)(F)C(F)(F)C(F)(F)F [IB39] | – | 52.5 µM | > 100 µM | > 100 µM | – | – | 4.26 | > 100 | > 100 | – |
| CC(C)(C)OC(=O)NCCCC[C@@H](N)C(=O)NCCCNCCCCNCCCN [IB41] | – | 31.9 µM | 6.73 µM | – | – | – | – | – | – | – |
| CCCCCCCCCCCCCCCC(=O)NC(CCCCN)C(=O)NCCCNCCCCNCCCN (centres unmarked) [ID4] | 0.44 µM | 0.636 µM | 1.33 µM | 2.64 µM | 1.26 | 17.9 | 18.6 | 18.7 | 18.1 | – |
| CCCCCCCC(=O)NC(CCCCN)C(=O)NCCCNCCCCNCCCN (centres unmarked) [ID7] | 5.29 µM | 8.25 µM | 7.42 µM | 17.2 µM | 9.54 | > 30 | > 30 | > 30 | > 30 | – |
| NCCCC[C@H](NC(=O)c1ccccc1)C(=O)NCCCNCCCCNCCCN [ID24] | 5.98 µM | 4.75 µM | 3.3 µM | > 30 µM | – | > 30 | > 30 | > 30 | > 30 | – |
| NCCCCC(NC(=O)c1ccco1)C(=O)NCCCNCCCCNCCCN (centres unmarked) [ID25] | 8.78 µM | 8.76 µM | 5.27 µM | > 30 µM | – | > 30 | > 30 | > 30 | > 30 | – |
| CCCCCCCCCCCCCCCC(=O)NCCCC[C@H](NC(=O)CCCCCCCCCCCCCCC)C(=O)NCCCNCCCCNCCCN [IE4] | – | 0.267 µM | 0.2 µM | 0.132 µM | – | – | 17.9 | 21.5 | 7.25 | – |
| CCS(=O)(=O)NCCCC[C@H](N)C(=O)NCCCNCCCCNCCCN [IIA2] | > 30 µM | – | > 30 µM | > 30 µM | – | > 30 | – | > 30 | > 30 | – |
| NCCCNCCCCNCCCNC(=O)[C@@H](N)CCCCNS(=O)(=O)c1ccccc1 [IIA16] | 1.21 µM | 2.57 µM | 0.72 µM | > 30 µM | – | > 30 | > 30 | > 30 | > 30 | – |
| Cc1cc(C)c(S(=O)(=O)NCCCC[C@H](N)C(=O)NCCCNCCCCNCCCN)c(C)c1 [IIA17] | 0.629 µM | < 1 µM | 0.18 µM | 2.59 µM | – | > 30 | 605 | > 30 | > 30 | – |
| NCCCNCCCCNCCCNC(=O)[C@@H](N)CCCCNS(=O)(=O)c1ccc(CNC(=O)c2ccc(Cl)cc2)s1 [IIA21] | – | 1.4 µM | 0.46 µM | – | – | – | – | – | – | – |
| CCS(=O)(=O)NCCCC[C@@H](N)C(=O)NCCCNCCCCNCCCN [IIB2] | 7.25 µM | – | 3.64 µM | > 30 µM | – | > 30 | – | > 30 | > 30 | – |
| Cc1cc(C)c(S(=O)(=O)NCCCC[C@@H](N)C(=O)NCCCNCCCCNCCCN)c(C)c1 [IIB17] | 1.52 µM | – | 0.919 µM | 26.2 µM | – | > 30 | – | > 30 | > 30 | – |
| CCCCCCCCCCCCCCCCS(=O)(=O)NCCCC[C@H](NS(=O)(=O)CCCCCCCCCCCCCCCC)C(=O)NCCCNCCCCNCCCN [IIE10] | – | 0.392 µM | 0.152 µM | 0.272 µM | – | – | 24.5 | 14.3 | 20.1 | – |
| CCCCC/C=C\C/C=C\CCCCCCCC(=O)NCCCC[C@H](N)C(=O)NCCCNCCCCNCCCN [IIIA5] | 0.084 µM | 0.207 µM | – | – | – | > 30 | > 30 | – | – | – |
| CCCC/C=C\CCCCCCCCCCNCCCC[C@H](N)C(=O)NCCCNCCCCNCCCN [IVA18] | 0.05 µM and 0.061 µM | – | 0.075 µM | 0.14 µM | 0.079 | – | – | > 3 | > 3 | – |
| NCCCNCCCCNCCCNC(=O)[C@H](CCCCNCc1ccccc1)NCc1ccccc1 [IVE30] | – | 4.2 µM | 1.7 µM | – | – | – | – | – | – | – |
